Experimental data as given in US11613533B2, “Compounds useful for inhibiting RET kinase” (Eli Lilly and Company, priority 2020, dated 2023).

Tests used:
[1] = target: T1, G810S mutant RET kinase (N-Terminal GST-tagged recombinant human G810S, aa-658-end) (Homo sapiens, UniProt P07949, G810S); assay: RET enzyme assay (HTRF KinEASE TK), G810S; type: biochemical; details: 1 mM ATP, 60 min incubation at 22° C.
T1 construct: recombinant human G810S (aa-658-end); GST (N); made in house; host or cells: insect cells
T1 sequence (P07949 658-1114 G810S limits assumed): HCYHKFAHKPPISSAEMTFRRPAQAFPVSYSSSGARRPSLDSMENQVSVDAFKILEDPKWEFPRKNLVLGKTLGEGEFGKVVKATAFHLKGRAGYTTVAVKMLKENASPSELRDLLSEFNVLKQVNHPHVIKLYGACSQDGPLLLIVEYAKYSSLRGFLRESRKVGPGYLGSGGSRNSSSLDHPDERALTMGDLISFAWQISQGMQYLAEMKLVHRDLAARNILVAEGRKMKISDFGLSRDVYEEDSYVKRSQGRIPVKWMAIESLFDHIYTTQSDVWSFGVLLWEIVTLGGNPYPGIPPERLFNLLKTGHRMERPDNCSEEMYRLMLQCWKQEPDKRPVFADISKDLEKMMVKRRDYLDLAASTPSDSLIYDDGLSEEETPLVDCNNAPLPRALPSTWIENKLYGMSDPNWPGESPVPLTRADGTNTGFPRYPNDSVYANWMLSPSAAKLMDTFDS
Method: Assay A: RET Enzyme Assay
Compounds of formulas I, II, or III are screened for their ability to inhibit wildtype, V804M, and G810S mutant RET kinase using CisBio's HTRF® KinEASE™TK assay technology. N-terminal GST tagged recombinant human RET cytoplasmic domain (aa 658-end) from Eurofins ([…]; Catalog No. 14-570M) or N-terminal GST tagged recombinant human V804M mutant RET cytoplasmic domain (aa 658-end) from Millipore (1.25 nM enzyme; Catalog No. 14-760) or N-Terminal GST-tagged recombinant human G810S (aa-658-end) (1.25 nM Enzyme; produced in insect cells) is incubated with 62.5 nM TK-substrate biotin (CisBio, part of Catalog No. 62TK0PEC) and 1 mM ATP along with test compound (0.4% final DMSO in the assay) in a 1× Cisbio enzymatic buffer consisting of […], 5 mM MgCl2, 0.04% BSA and 0.05% Tween20 in a volume of 10 μL. Compounds are typically prepared in a threefold serial dilution in DMSO and added to the assay to give the appropriate final concentration. After a 40-60 min (40 min for V804M, 60 min for WT and G810S) incubation at 22° C., the reaction is quenched by adding quench solution (10 μL) containing 7.8 nM Streptavidine-XL665 and 0.5×TK-ab-Cryptate in HTRF detection buffer (all from CisBio, part of Cat. No. 62TK0PEC). After a 60-80 min incubation (60 minutes for WT, 80 minutes for V804M and G810S) at 22° C., the extent of reaction is determined using a PHERastar plate reader via HTRF detection at excitation/emission 337/665 nm. Percent of inhibition is calculated with 0% inhibition referring to control conditions containing no compound (0.4% DMSO only) and 100% inhibition represented by conditions containing no enzyme. The % inhibition values are fit to a 4 parameter logistic curve, and the determined IC50 value is defined as the estimated concentration of inhibitor at the inflexion point of the fitted curve.

[2] = target: T2, KIF5B-RET mutant form G810S in HEK293 cells (Homo sapiens, UniProt P07949, G810S); assay: RET cell assay (In-Cell Western, phospho-RET Y1062), G810S; type: cell-based; details: HEK293, doxycycline-induced KIF5B-RET G810S, 1 hr compound treatment; read-out: EC50, inhibition of intracellular autophosphorylation of RET at tyrosine 1062, G810S cells
T2 construct: expressed in transfected cells; host or cells: HEK293; the other entry of the earlier key: KIF5B (P33176, Kinesin-1 heavy chain)
T2 sequence (P07949 713-1063 G810S limits assumed): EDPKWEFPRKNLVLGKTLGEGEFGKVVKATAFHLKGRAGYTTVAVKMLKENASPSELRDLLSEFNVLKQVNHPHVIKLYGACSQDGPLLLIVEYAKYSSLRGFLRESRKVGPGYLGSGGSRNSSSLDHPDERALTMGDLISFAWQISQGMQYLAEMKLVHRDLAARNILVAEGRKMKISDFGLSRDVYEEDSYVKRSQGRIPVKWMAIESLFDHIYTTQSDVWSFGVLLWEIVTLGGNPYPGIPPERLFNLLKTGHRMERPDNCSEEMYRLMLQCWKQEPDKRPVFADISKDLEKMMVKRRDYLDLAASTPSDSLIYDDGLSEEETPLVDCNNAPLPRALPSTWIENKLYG
Method: Compounds of formulas (I), (II), and (III) are screened for their ability to inhibit the intracellular autophosphorylation of RET at tyrosine 1062 as detected by In-Cell Western. HEK293 cells containing a doxycycline-inducible plasmid for inducible expression of KIF5B-RET WT and RET mutant forms V804M and G810S are seeded at 25,000 cells/well into black poly-D-lysine pre-coated 384-well plates (Corning, Catalog No. 356697). Expression of KIF5B-RET is induced with doxycycline at 1 μg/mL and cells are incubated at 37° C. overnight. Compounds are prepared in a threefold serial dilution in DMSO before further diluting 1:100 in media prior to the addition to the cells (0.1% final DMSO concentration). Compound treatment is performed for 1 hr at 37° C. followed by fixation of cells with 4% formaldehyde for 20 min at RT and cell permeabilisation with ice-cold MeOH for 10 min at RT. Cells are incubated with Intercept® blocking buffer (Li—COR, Catalogue No. 927-70010) for 1 hr at RT. Incubation with primary antibodies against human phospho-RET (Y1062) (R&D, Catalogue No. AF5009, 1/250 dilution) and human glyceraldehyde-3-phosphate dehydrogenase (clone 6C5, Merck, Catalog No. MAB374, 1/1000 dilution) are performed overnight at 4° C. Incubation with secondary antibodies IRDye® 800CW goat anti-rabbit IgG (Li—COR, Catalogue No. 926-32211, 1/1000 dilution) and IRDye® 680CW goat anti-mouse IgG (Li—COR, Catalogue No. 926-68070, 1/1000 dilution) are performed for 1 hr at RT. All antibody dilutions are done in Intercept® blocking buffer containing 0.05% Tween20. After washing cells with PBS-T (Cell Signaling technology, Catalogue No. 9809), the images are acquired on a Li—COR Odyssey LCx at 700 and 800 nm. Percent of DMSO control is calculated with 100% signal referring to control conditions containing no compound (0.4% DMSO only) and 0% signal represented by conditions containing control compound. The % of DMSO control values are fit to a 4 parameter logistic curve, and the determined EC50 value is defined as the estimated concentration of inhibitor at the inflexion point of the fitted curve.

| SMILES | IC50 [1] [nM] | EC50 [2] [nM] |
| --- | --- | --- |
| CC(C(=O)Nc1cc(C(C)(C)C)sn1)c1ccc(-c2nn(C(C)C)c(N)c2C(N)=O)cc1 (single isomer, unassigned; isomer 2) [Example 80, 5-Amino-3-(4-[1-[(5-tert-butyl-1,2-thiazol-3-yl)carbamoyl]ethyl]phenyl)-1-isopropylpyrazole-4-carboxamide, isomer 2] | < 100 | < 100 |
| CCC(C)(C)c1cc(NC(=O)C(C)c2ccc(-c3nn(C(C)C)c(N)c3C(N)=O)cn2)on1 (single isomer, unassigned; isomer 2) [Example 84, 5-Amino-1-isopropyl-3-[6-[2-[[3-(1,1-dimethylpropyl)isoxazol-5-yl]amino]-1-methyl-2-oxo-ethyl]-3-pyridyl]pyrazole-4-carboxamide, Isomer 2] | < 100 | < 100 |
| CC(C(=O)Nc1cc(C(C)(C)C(F)(F)F)no1)c1ccc(-c2nn(C(C)C)c(N)c2C(N)=O)cn1 (single isomer, unassigned; isomer 2) [Example 90, 5-Amino-1-isopropyl-3-[6-[1-methyl-2-oxo-2-[[3-(2,2,2-trifluoro-1,1-dimethyl-ethyl)isoxazol-5-yl]amino]ethyl]-3-pyridyl]pyrazole-4-carboxamide, Isomer 2] | < 100 | < 100 |
| CC(C(=O)Nc1cc(-c2ccc(Cl)cc2Cl)no1)c1ccc(-c2nn(C(C)C)c(N)c2C(N)=O)cn1 (single isomer, unassigned; isomer 2) [Example 94, 5-Amino-1-isopropyl-3-[6-[2-[[3-(2,4-dichlorophenyl)isoxazol-5-yl]amino]-1-methyl-2-oxo-ethyl]-3-pyridyl]pyrazole-4-carboxamide, Isomer 2] | < 100 | < 100 |
